In US20090299049A1, “Bicyclic Compounds and Their Use” (priority 2006, published 2009):

Experiments:
T7 RNA polymerase = T7 RNA polymerase (Escherichia phage T7, UniProt P00573); assay: Gel-based in vitro transcription assay with the ATP analogue as substrate; assay type: biochemical, bacteriophage T7; conditions: for Length of RNA products observed: Mg^2+ co-factor, analogue in place of ATP
Description: (§1) In vitro assays of hepatitis C virus (HCV) and bacteriophage T7 RNA polymerases have been performed using adenosine ribonucleotide triphosphate analogues of the present invention as a substrate (in place of natural ATP). Both unincorporated and incorporated fluorescent purine ribonucleotide analogues could be visualised directly under UV trans-illumination in either agarose or polyacrylamide gels without ethidium bromide staining. The RNA products generated in the transcription assay were characterised by 6% or 20% polyacrylamide gel electrophoresis (PAGE) under denaturing (7 M urea) conditions. […] The expected full-length (˜500 bases) RNA products were not observed by denaturing 6% PAGE. Short RNA products were separated by denaturing 20% PAGE. […] The analogues are also incorporated at a slower rate than the natural substrates. Incorporation of the first and second adenosine (underlined adenosine residues in the Table below) into the RNA product occurs with two templates tested, but adjacent adenosine analogues terminate transcription before the third adenosine in each template is incorporated. Two adjacent adenosine analogues may be too large for the active site, thus RNA synthesis is terminated and the product released.
RNA products formed using the HCV 3′-UTR and T7 φ13 promoter DNA templates in gel-based transcription assays of T7 RNA polymerase and 8-phenylethynyl-adenosine triphosphate: […]

HCV RNA polymerase = biological target: T1, HCV RNA polymerase (Hepatitis C virus genotype 1a, UniProt P27958); assay: In vitro RNA polymerase assay with the ATP analogue as substrate; assay type: biochemical
T1 construct: results with HCV and T7 RNA polymerases using 8-phenylethynyl-adenosine triphosphate as a substrate
T1 sequence (P27958 2421-3011): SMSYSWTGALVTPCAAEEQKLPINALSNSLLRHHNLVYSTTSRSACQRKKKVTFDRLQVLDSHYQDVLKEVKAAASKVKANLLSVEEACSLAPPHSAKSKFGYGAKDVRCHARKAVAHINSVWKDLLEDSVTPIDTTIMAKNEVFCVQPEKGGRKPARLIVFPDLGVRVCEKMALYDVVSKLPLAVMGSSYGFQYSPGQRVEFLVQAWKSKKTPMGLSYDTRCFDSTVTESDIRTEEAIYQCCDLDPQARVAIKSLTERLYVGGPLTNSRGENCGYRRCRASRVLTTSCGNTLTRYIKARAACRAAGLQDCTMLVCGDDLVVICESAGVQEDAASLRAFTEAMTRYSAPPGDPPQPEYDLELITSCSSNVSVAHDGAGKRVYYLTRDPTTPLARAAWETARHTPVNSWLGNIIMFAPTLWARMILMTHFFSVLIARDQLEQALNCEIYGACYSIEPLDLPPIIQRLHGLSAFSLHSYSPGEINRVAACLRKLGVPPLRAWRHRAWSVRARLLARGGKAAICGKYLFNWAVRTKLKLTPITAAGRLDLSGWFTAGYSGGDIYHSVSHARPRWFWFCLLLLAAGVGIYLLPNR
Description: as §1

[1] = Optical properties: UV-visible spectra, fluorescence excitation and emission; assay type: physicochemical; conditions: for Stokes shift: (1/λex − 1 λem); for λem: fluorescence emission wavelength; for λex: fluorescence excitation wavelength
Description: The optical properties of several novel chromophores were investigated. UV-visible spectra reveal an intense absorption in the UV region for all the compounds evaluated.

[2] = UV absorbance and fluorescence of ribonucleoside analogues in DMSO (molar extinction coefficient, quantum yield); assay type: physicochemical; conditions: for Quantum yield: relative to quinine sulphate and anthracene standards
Description: UV absorbance and fluorescence excitation and emission data were used to determine the molar extinction coefficient and fluorescence quantum yield of a several adenosine and guanosine ribonucleoside analogues in DMSO (see the Table below). The data acquired support the concept that the fluorescence properties of these analogues can be tuned by altering the electron-donating or electron-withdrawing R-group on the terminal phenylalkyne. Fourteen electron-donating or electron-withdrawing R-groups were coupled to purine bases at the 8-position. […] This makes the analogues extremely useful for the quantification of analogue-containing nucleic acid products in a DNA or RNA background. […] The position (ortho, meta or para) of the R-group on the phenyl ring can also be used to tune the fluorescent properties of the analogues. The ring position of the R-group has a smaller effect on the fluorescent properties of the analogues. Greater changes in the excitation/emission wavelength, molar extinction coefficient and quantum yield can be induced by changing the type of R-group (electron-donating vs. electron-withdrawing) as compared to the position of a R-group on the phenyl ring (ortho, meta or para). The quantum yields of the unphosphorylated analogues were measured relative to quinine sulphate and anthracene standards. […] This provides additional support for the idea that the purine bases can both push and pull electrons in π-conjugated systems.

[3] = Mg^2+ as co-factor, depending on DNA template

Sequence of T7 RNA polymerase (P00573 whole entry): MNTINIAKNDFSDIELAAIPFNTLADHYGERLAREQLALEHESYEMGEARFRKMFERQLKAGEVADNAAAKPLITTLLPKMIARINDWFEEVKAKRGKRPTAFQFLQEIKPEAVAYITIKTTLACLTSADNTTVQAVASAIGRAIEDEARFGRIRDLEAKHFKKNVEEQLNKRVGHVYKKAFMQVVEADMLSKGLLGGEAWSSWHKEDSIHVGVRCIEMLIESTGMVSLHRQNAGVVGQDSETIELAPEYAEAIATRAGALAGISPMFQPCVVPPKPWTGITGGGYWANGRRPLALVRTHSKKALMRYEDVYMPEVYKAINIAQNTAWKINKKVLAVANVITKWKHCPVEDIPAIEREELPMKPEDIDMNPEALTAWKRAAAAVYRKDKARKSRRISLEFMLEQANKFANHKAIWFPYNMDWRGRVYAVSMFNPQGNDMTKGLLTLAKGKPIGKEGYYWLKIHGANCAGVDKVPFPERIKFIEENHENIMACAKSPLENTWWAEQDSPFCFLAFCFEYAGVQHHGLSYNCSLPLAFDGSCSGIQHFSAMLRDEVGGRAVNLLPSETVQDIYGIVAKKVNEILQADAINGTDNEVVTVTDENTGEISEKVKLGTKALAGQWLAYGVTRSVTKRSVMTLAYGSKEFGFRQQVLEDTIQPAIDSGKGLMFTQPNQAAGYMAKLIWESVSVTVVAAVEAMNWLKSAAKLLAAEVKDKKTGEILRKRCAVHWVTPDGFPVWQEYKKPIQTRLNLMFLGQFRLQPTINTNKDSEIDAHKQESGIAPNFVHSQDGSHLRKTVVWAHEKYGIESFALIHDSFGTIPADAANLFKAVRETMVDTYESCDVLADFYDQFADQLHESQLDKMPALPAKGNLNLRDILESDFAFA

Compound	Length of RNA products observed (T7 RNA polymerase; HCV 3′-UTR DNA template)	RNA transcripts yielded with analogue as substrate (T7 RNA polymerase; [3])	Length of RNA products observed (T7 RNA polymerase; T7 φ13 promoter DNA template)	Expected full-length (˜500 bases) RNA products (T7 RNA polymerase; denaturing 6% PAGE)	Length of small RNA products into which the analogue is incorporated (T7 RNA polymerase; denaturing 20% PAGE)	RNA transcripts yielded with analogue as substrate (HCV RNA polymerase; [3])	Expected full-length (˜500 bases) RNA products (HCV RNA polymerase; denaturing 6% PAGE)	Stokes shift [1] [cm⁻¹]	Absorption maxima shift relative to compound 7a (parent) ([1]; compared with the guanosine series)	λem [1] [nm]	λex [1] [nm]	Molar absorption coefficient [2] [M⁻¹ cm⁻¹]	Wavelength at fluorescence emission maximum [2] [nm]	Wavelength at maximum in UV absorption [2] [nm]	Quantum yield [2] [%]	melting point
Nc1ncnc2c1nc(C#Cc1ccccc1)n2[C@@H]1O[C@H](COP(=O)(O)OP(=O)(O)OP(=O)(O)O)[C@@H](O)[C@H]1O [8-phenylethynyl-adenosine triphosphate]	6 mer, 9 mer	short RNA transcripts	4 mer, 6 mer	not observed	4-9 bases	short RNA transcripts	not observed	–	–	–	–	–	–	–	–	–
COc1ccc(C#Cc2nc3c(N)ncnc3n2[C@@H]2O[C@H](CO)[C@@H](O)[C@H]2O)cc1 [Compound 6c, 8-(4-methoxyphenylethynyl)-adenosine]	–	–	–	–	–	–	–	1933	more significant differences	380	354	18176	380	326	24	198 to 202 °C (dec.)
CSc1ccc(C#Cc2nc3c(N)ncnc3n2[C@@H]2O[C@H](CO)[C@@H](O)[C@H]2O)cc1 [Compound 6d, 8-(4-Methylsulfanylphenylethynyl)adenosine]	–	–	–	–	–	–	–	1921	–	396	368	26019	–	338	67	184 to 188 °C (dec.)
Nc1ncnc2c1nc(C#Cc1ccc(C(F)(F)F)cc1)n2[C@@H]1O[C@H](CO)[C@@H](O)[C@H]1O [Compound 6g, 8-(4′-Trifluoromethylphenylethynyl)adenosine]	–	–	–	–	–	–	–	4897	–	440	362	–	436	333	8.8	196 to 198 °C (dec.)
